Test results reported in patent publication US20260115181A1, “TRANSCRIPTION FACTOR PFAP2-O5 INHIBITOR FOR PLASMODIUM FALCIPARUM, PHARMACEUTICAL COMPOSITION, AND DRUG FOR TREATING MALARIA RESISTANT TO ARTEMISININ AND ANALOG THEREOF” (priority 2023, published 2026).

Experiments:
PfAP2-O5 = test: Transcriptome sequencing (RNA-seq) analysis of effects on PfAP2-O5 target (invasion) gene expression; assay type: cell-based, Plasmodium falciparum; settings: wild-type strain, 1 μM
Experimental: Wild-type and pfap2-o5 conditional knockdown Plasmodium falciparum strains were treated with the hexahydroquinoline derivative represented by formula (I), respectively. After strict synchronization of the Plasmodium falciparum strains, 1 μM hexahydroquinoline derivative was added one life cycle in advance. After one life cycle, the ring (10-15 hours), trophozoite (28-32 hours), and schizont (40-44 hours) stage cultures of the wild-type and pfap2-o5 conditional knockdown Plasmodium falciparum strains treated with the hexahydroquinoline derivative were collected. Total RNA was purified using the Direct-zol RNA kit, strand-specific RNA sequencing libraries were then prepared using KAPA mRNA beads, and the RNA was fragmented. The libraries were sequenced on the Illumina HiSeq X Ten system, and the differential gene expression between the two Plasmodium falciparum strains after inhibitor treatment was analyzed.

Plasmodium falciparum = test: In vitro growth inhibition of Plasmodium falciparum (3-day SYBR Green I cell growth assay); assay type: cell-based; settings: wild-type Plasmodium falciparum, 72 hours, read-out: IC50 of the quantitative growth inhibitory effect on in vitro culture of Plasmodium falciparum
Experimental: 100 μL of complete culture medium was added to a 96-well plate. 200 μL of a compound stock solution with a concentration of 200 μM was added to the first well. Gradient dilution (11 concentration gradients) was performed at a 1/2 ratio according to the doubling gradient dilution. Dihydroartemisinin (DHA) was used as a positive control, complete culture medium was used as a negative control, and red blood cells without Plasmodium falciparum or compounds were used as a background control.
100 μL of wild-type Plasmodium falciparum culture (1% parasitemia, 4% hematocrit) was accurately added to each well, so that finally, the parasitemia in each well was 0.5%, and the hematocrit was 2%. The final concentration gradients of the compound were 100 μM, 50 μM, 25 μM, 12.5 μM, 6.25 μM, 3.125 μM, 1.5625 μM, 0.78125 μM, 0.390625 µM, 0.195313 μM, and 0.097656 μM. […] After the incubation was completed, a fluorescence intensity was recorded on a microplate reader with an excitation wavelength of 485 nm and an emission wavelength of 535 nm. The inhibition rate of the small molecule inhibitor on the growth of Plasmodium falciparum was calculated based on the fluorescence intensity.
[formula] • where Fltreated, Flbackground, and Flcontrol represent the fluorescence intensity values of the candidate small molecule drug group, the red blood cell control group, and the untreated control group, respectively. […]

[1] = tested on: human liver cancer cell line HepG2; test: Cytotoxicity, CCK8 assay, HepG2 cells; assay type: cell-based; settings: HepG2, 72 hours
Experimental: (§1) Mammalian 293T and HepG2 cells were cultured and passaged, trypsinized, and resuspended in DMEM. The cells were counted using a hemocytometer and diluted to 10^5 cells/mL. The cell suspension was evenly added to a 96-well plate, with 100 μL per well. After the cells were subjected to attachment culture in a 37° C. incubator (5% CO2) for 24 hours, the inhibitors of the corresponding concentrations were added. Gradient dilution (11 concentration gradients) was performed at a 1/2 ratio according to the doubling gradient dilution. Complete culture medium was used as a negative control, and DMEM was used as a background control. After the culture in a 37° C. incubator (5% CO2) for 72 hours, 10 μL of CCK8 reagent was added to each well. The plate was incubated in a 37° C. incubator (5% CO2) for 1 hour. The absorbance at a 450 nm wavelength was read by a microplate reader, and a survival rate was calculated based on the absorbance.
(§2) [formula] • where Abtreated, Abbackground, and Abcontrol represent the absorbance values of the small molecule drug group, the DMEM control group, and the untreated control group, respectively. The inhibition rate of the drug was calculated based on the survival rate at different concentrations, and the growth inhibition curve was summarized as inhibition rate-drug concentration. The IC50 was calculated using SPSS 18.0 software.

[2] = Liver microsomal metabolism assay, mouse; assay type: in vitro ADME
Experimental: (§3) In the microsomal metabolism assay, the inhibitor was incubated with liver microsomes from different species; the reaction was terminated at different time points; the remaining amount of the inhibitor in the samples at each time point was determined using LC-MS/MS. The percentage of parent drug remaining was calculated, and the hepatic intrinsic clearance CLint(liver) was finally obtained. Testosterone was used as a control in this study to verify the reliability of the experimental system. The detailed procedures were as follows: • The incubation system consisted of 0.1 M Tris-HCl buffer (pH 7.4), 1 mM MgCl2, 1 mM NADPH (Nicotinamide Adenine Dinucleotide Phosphate), and 0.5 mg/ml microsomes, and the final reaction volume was 200 μL. […] inhibitor and testosterone were pre-incubated with liver microsomes from different species in a 37° C. water bath for 5 minutes. 100 μL of NADPH was added to initiate the reaction. 400 μL of stop solution was added to terminate the reaction at time points of 0 minutes, 5 minutes, 15 minutes, 30 minutes, 45 minutes, and 60 minutes. 40 μL of internal standard was added, and the mixture was vortexed for 5 minutes and centrifuged at 20,000 g and 4° C. for 5 minutes. 100 μL of the supernatant was taken and diluted with 100 μL of water for injection and analysis. The retention time of the compound and the internal standard, chromatogram acquisition, and chromatogram integration were processed by Analyst 1.6.3 software. The compound was subjected to linear regression with a weighting coefficient of 1/X^2 to calculate the concentration at each time point. The natural logarithm of the percentage remaining at each time point was linearly regressed against the incubation time to calculate the in vitro elimination rate constant k. The half-life (T1/2) and hepatic intrinsic clearance CLint(liver) of the test article were calculated according to the following formula.
(§4) hepatic microsomal clearance CLint(mic)=0.693/half-life/mg microsomal protein per mL; hepatic intrinsic clearance CLint(liver)=hepatic microsomal clearance×mg microsomal protein/gram of liver×liver weight-to-body weight ratio. The liver weight-to-body weight ratios of mice, rats, and humans were 88, 40, and 20 g/kg, respectively; the average value of mg microsomal protein/gram of liver in different species was 45.

[3] = Liver microsomal metabolism assay, rat; assay type: in vitro ADME
Experimental: as §3, §4

[4] = Liver microsomal metabolism assay, human; assay type: in vitro ADME
Experimental: as §3, §4

[5] = tested on: human renal epithelial cell line 293T; test: Cytotoxicity, CCK8 assay, 293T cells; assay type: cell-based; settings: 72 hours
Experimental: as §1, §2

In the case of `CC1=C(C(=O)Nc2cccc(C(F)(F)F)c2)C(c2cccc([N+](=O)[O-])c2)C2=C(CC(C)(C)CC2=O)N1` (centres unmarked) [hexahydroquinoline derivative], the “expression of PfAP2-O5 target genes after treatment” value (PfAP2-O5) is reported as “downregulated”, the “decrease of expression levels of merozoite surface structural protein family (invasion) genes (mRNA level)” value (PfAP2-O5; added one life cycle in advance) is reported as “more than 1.5 fold” and the IC50 (Plasmodium falciparum) is reported as 2.16 µM. For the same molecule, the “cytotoxicity to mammalian cells” value [1] was “low cytotoxicity”, the CLint scaled ([2]; liver microsomes, pH 7.4, mouse, hepatic intrinsic clearance CLint(liver), scaled with 45 mg protein/g liver, 88 g/kg) was 176 mL/min/kg and the clearance classification ([2]; mouse liver microsomes) was “moderate-clearance compound”. For the same molecule, the k ([2]; mouse liver microsomes 0.5 mg/ml, 1 mM NADPH, 1 M inhibitor, 37° C.) was 0.0222 min⁻¹, the half-life ([2]; pH 7.4, mouse liver microsomes 0.5 mg/ml, 1 mM NADPH, 37° C.) was 31.2 min and the CLint scaled ([3]; liver microsomes, pH 7.4, rat, hepatic intrinsic clearance CLint(liver), scaled with 45 mg protein/g liver, 40 g/kg) was 178 mL/min/kg. The half-life ([3]; pH 7.4, rat liver microsomes 0.5 mg/ml, 1 mM NADPH, 37° C.) was 14.1 min, the clearance classification ([3]; rat liver microsomes) was “high-clearance compound” and the k ([3]; rat liver microsomes 0.5 mg/ml, 1 mM NADPH, 1 M inhibitor, 37° C.) was 0.0493 min⁻¹. The clearance classification ([4]; human liver microsomes) was “moderate-clearance compound”, the k ([4]; human liver microsomes 0.5 mg/ml, 1 mM NADPH, 1 M inhibitor, 37° C.) was 0.0124 min⁻¹ and the CLint scaled ([4]; liver microsomes, pH 7.4, human, hepatic intrinsic clearance CLint(liver), scaled with 45 mg protein/g liver, 20 g/kg) was 22.3 mL/min/kg. The half-life ([4]; pH 7.4, human liver microsomes 0.5 mg/ml, 1 mM NADPH, 37° C.) was 55.9 min and the “cytotoxicity to mammalian cells” value [5] was “low cytotoxicity”.
